Results as given in patent US20200337311A1 (priority 2017, published 2020).

tested on: Meloidogyne incognita; assay: Meloidogyne incognita (root-knot nematode) in vitro test; details: 300 ppm; 50 juveniles in 500 μL water, 25° C.; counted at 48, 72 and 96 h; no mortality in untreated check
Experimental: Example 1: Meloidogyne incognita (Root-Knot Nematode): In Vitro Test
The test compounds at a concentration of 300 ppm were introduced into 500 μL of distilled water containing 50 Meloidogyne incognita juveniles into 24-well plates. The suspension was lightly shaken for uniform mixing of compounds. The test plates were covered with lids, and were kept for incubation at 25° C. temperature and 90% relative humidity. […] Compounds
(§1) Meloidogyne incognita: In Vivo Test

SMILES	mortality [%]
CO/N=C/c1cnc(SCCC=C(F)F)o1 [Compound 290]	> 90

tested on: Meloidogyne incognita; assay: Meloidogyne incognita in vivo test on cucumber plants (gall rating); details: 300 ppm; soil application to cucumber seedlings; 15 days after application; untreated check up to 8
Experimental: as §1
Cucumber plants were grown in seedling tray containing mixture of Sand:Soil:FYM:Cocopeat in ratio of 1:1:1:1. One mL of test compound at tested concentration was applied into the soil mixture with the help of micropipette when the cucumber seedlings ten days old. Approximately 2000 freshly hatched second-stage juveniles of Meloidogyne incognita were inoculated. The treated plants were allowed to grow at 27° C. temperature in greenhouse. Observation of gall rating was recorded after 15 days of application. Plants were carefully uprooted and roots were washed thoroughly. The gall rating was observed on 0-10 scale as described by Zeck (1971) as mentioned below: • 0=no galls • 1=very few small galls • 2=numerous small galls • 3=numerous small galls of which some are grown together • 4=numerous small and some big galls • 5=25% of roots severely galled • 6=50% of roots severely galled • 7=75% of roots severely galled • 8=no healthy roots but plant is still green • 9=roots rotting and plant dying • 10=plant and roots dead
recorded less than 3 gall rating in the tests, where there was extensive galling (up to 8) in untreated check.

SMILES	gall rating (0-10 scale, Zeck 1971)
O=S(=O)(CCC(F)=C(F)F)c1ncc(C(F)F)s1 [Compound 329]	< 3
N#Cc1cnc(SCCC(F)=C(F)F)o1 [Compound 331]	< 3
FC(F)=C(F)CCSc1ncc(C(F)F)o1 [Compound 330]	< 3
N#Cc1cnc([S+]([O-])CCC(F)=C(F)F)o1 (stereo not drawn) [Compound 333]	< 3
CCO/N=C/c1cnc(S(=O)(=O)CCC(F)=C(F)F)s1 [Compound 23]	< 3
[O-][S+](CCC(F)=C(F)F)c1ncc(/C=N\OCC2CC2)o1 (stereo not drawn) [Compound 103]	< 3
N#Cc1cnc([S+]([O-])CCC(F)=C(F)F)s1 (stereo not drawn) [Compound 328]	< 3
CCO/N=C/c1cnc(S(=O)(=O)CCC=C(F)F)s1 [Compound 237]	< 3
[O-][S+](CCC(F)=C(F)F)c1ncc(-c2ncon2)s1 (stereo not drawn) [Compound 213]	< 3
CO/N=C(/C)c1cnc(S(=O)(=O)CCC(F)=C(F)F)o1 [Compound 134]	< 3
CCO/N=C\c1cnc(S(=O)(=O)CCC=C(F)F)s1 [Compound 233]	< 3
CO/N=C(/c1oc([S+]([O-])CCC(F)=C(F)F)nc1C)C(C)C (stereo not drawn) [Compound 273]	< 3
Cc1nc([S+]([O-])CCC(F)=C(F)F)sc1C#N (stereo not drawn) [Compound 338]	< 3
Cc1nc([S+]([O-])CCC(F)=C(F)F)sc1C(F)F (stereo not drawn) [Compound 337]	< 3
Cc1csc(S(=O)(CCC(F)=C(F)F)=NC#N)n1 (stereo not drawn) [Compound 183]	< 3
CCO/N=C/c1cnc([S+]([O-])CCC(F)=C(F)F)o1 (stereo not drawn) [Compound 36]	< 3

SMILES	gall rating (0-10 scale, Zeck 1971)
CCO/N=C(\C)c1cnc(SCCC(F)=C(F)F)o1 [Compound 132]	< 3
CO/N=C\c1cnc(SCCC=C(F)F)s1 [Compound 235]	< 3
CO/N=C/c1oc(SCCC(F)=C(F)F)nc1C [Compound 238]	< 3
N#Cc1cnc(SCCC(F)=C(F)F)s1 [Compound 327]	< 3
Cc1nc(S(=O)(=O)CCC(F)=C(F)F)sc1C#N [Compound 339]	< 3
Cc1nc([S+]([O-])CCC(F)=C(F)F)oc1C#N (stereo not drawn) [Compound 348]	< 3
CO/N=C(\C)c1cnc(S(=O)(=O)CCC(F)=C(F)F)s1 [Compound 53]	< 3
CO/N=C/c1cnc(SCCC=C(F)F)s1 [Compound 234]	< 3
[O-][S+](CCC(F)=C(F)F)c1ncc(C(F)F)s1 (stereo not drawn) [Compound 326]	< 3
N#Cc1cnc(S(=O)(=O)CCC(F)=C(F)F)s1 [Compound 332]	< 3
CC(C)CCO/N=C/c1cnc(SCCC(F)=C(F)F)s1 [Compound 34]	< 3
CO/N=C(\C)c1cnc([S+]([O-])CCC(F)=C(F)F)o1 (stereo not drawn) [Compound 130]	< 3
CCO/N=C\c1cnc(SCCC(F)=C(F)F)o1 [Compound 13]	< 3
Cc1nc(S(=O)(=O)CCC(F)=C(F)F)oc1C(F)F [Compound 350]	< 3
Cc1nc(S(=O)(=O)CCC(F)=C(F)F)sc1C(F)F [Compound 340]	< 3
CO/N=C\c1cnc(S(=O)(=O)CCC=C(F)F)s1 [Compound 236]	< 3
